{
  "source": "PubChem BioAssay AID2458",
  "about": "(Broad Institute, 2010)",
  "biological_target": "Luciferin 4-monooxygenase (Photinus pyralis) (UniProt P08659)",
  "sequence (P08659 whole entry, looked up)": "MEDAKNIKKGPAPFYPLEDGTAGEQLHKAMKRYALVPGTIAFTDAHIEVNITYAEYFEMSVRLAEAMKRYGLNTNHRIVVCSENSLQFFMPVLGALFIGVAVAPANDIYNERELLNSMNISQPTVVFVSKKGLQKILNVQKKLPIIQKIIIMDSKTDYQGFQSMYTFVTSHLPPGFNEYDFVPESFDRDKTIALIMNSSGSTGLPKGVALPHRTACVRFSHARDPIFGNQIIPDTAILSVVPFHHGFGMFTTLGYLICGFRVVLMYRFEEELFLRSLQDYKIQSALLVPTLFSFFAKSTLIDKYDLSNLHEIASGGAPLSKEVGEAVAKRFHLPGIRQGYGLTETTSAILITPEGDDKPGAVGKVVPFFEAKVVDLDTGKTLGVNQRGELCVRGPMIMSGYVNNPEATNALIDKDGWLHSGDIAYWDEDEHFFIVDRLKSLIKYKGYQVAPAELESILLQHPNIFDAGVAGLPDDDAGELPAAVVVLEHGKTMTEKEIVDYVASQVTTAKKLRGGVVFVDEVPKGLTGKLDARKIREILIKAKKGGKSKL",
  "experiment": "Confirmatory luminescence dose response, luciferase translation or activity, H4 neuroglioma cells (AID 2458)",
  "note": "Results filed as inconclusive are left out.",
  "data": [
    {"smiles": "COc1ccc(O)c2c(=O)c3c(OC)cc4c(c3oc12)C1C=COC1O4", "note": "(stereo unspecified)", "values": [
      {"measurement": "EC50", "result": 521, "unit": "nM"}
    ]}
  ]
}
